Organism: Rattus norvegicus
Assay: DrugMatrix - Regimen: Daily Repeat
Assay type: toxicity, organism-based, Sprague-Dawley
Parameters: regimen Daily Repeat, gender Male, age 6-8 weeks
Conditions: in vivo, po, route oral GAVAGE, vehicle 100 % WATER; for ABSOLUTE BASOPHIL / ABSOLUTE EOSINOPHIL / ABSOLUTE LYMPHOCYTE / ABSOLUTE MONOCYTE / ABSOLUTE SEGMENTED NEUTROPHIL / BASOPHIL / EOSINOPHIL / ERYTHROCYTE COUNT / HEMATOCRIT / HEMOGLOBIN / LEUKOCYTE COUNT / LYMPHOCYTE / MEAN CORPUSCULAR HEMOGLOBIN / MEAN CORPUSCULAR HEMOGLOBIN CONCENTRATION / MONOCYTE / NEUTROPHIL / NUCLEATED RED BLOOD CELLS / PLATELET COUNT: tissue Blood; for ALANINE AMINOTRANSFERASE / ALBUMIN / ALKALINE PHOSPHATASE / BLOOD UREA NITROGEN / CARBON DIOXIDE / CHLORIDE / CHOLESTEROL / CREATINE PHOSPHOKINASE / CREATININE / GLUCOSE / LACTATE DEHYDROGENASE / LIPASE / PHOSPHORUS / POTASSIUM / SODIUM / TOTAL BILIRUBIN / TOTAL PROTEIN / URIC ACID: tissue Plasma
[1] = 15 mg/kg, 120 h, dose level Low, time 5 day
[2] = 150 mg/kg, 72 h, dose level High, time 3 day
[3] = 150 mg/kg, 120 h, dose level High, time 5 day

Cc1ccc(NC(=O)c2ccc(CN3CCN(C)CC3)cc2)cc1Nc1nccc(-c2cccnc2)n1 [IMATINIB]
ABSOLUTE BASOPHIL [1]: 0 CELLS/uL
ABSOLUTE EOSINOPHIL [1]: 72.33 CELLS/uL
ABSOLUTE LYMPHOCYTE [1]: 6282 CELLS/uL
ABSOLUTE MONOCYTE [1]: 25.33 CELLS/uL
ABSOLUTE SEGMENTED NEUTROPHIL [1]: 653.67 CELLS/uL
BASOPHIL [1]: 0%
EOSINOPHIL [1]: 1%
ERYTHROCYTE COUNT [1]: 5.21 x10E6/uL
HEMATOCRIT [1]: 33.07%
HEMOGLOBIN [1]: 12.73 G/DL
LEUKOCYTE COUNT [1]: 7.03 x10E3/uL
LYMPHOCYTE [1]: 89.67%
MEAN CORPUSCULAR HEMOGLOBIN [1]: 24.43 pg
MEAN CORPUSCULAR HEMOGLOBIN CONCENTRATION [1]: 38.53 G/DL
MONOCYTE [1]: 0.33%
NEUTROPHIL [1]: 9%
NUCLEATED RED BLOOD CELLS [1]: 0 /100WBC
PLATELET COUNT [1]: 1004.67 x10E3/uL
ALANINE AMINOTRANSFERASE [1]: 55.67 u/L
ALBUMIN [1]: 4.2 G/DL
ALKALINE PHOSPHATASE [1]: 357.67 u/L
BLOOD UREA NITROGEN [1]: 14.67 mg/dL
CARBON DIOXIDE [1]: 28 mmol/L
CHLORIDE [1]: 100.33 MEQ/L
CHOLESTEROL [1]: 60 mg/dL
CREATINE PHOSPHOKINASE [1]: 404.33 u/L
CREATININE [1]: 0.17 mg/dL
GLUCOSE [1]: 140.33 mg/dL
LACTATE DEHYDROGENASE [1]: 183.67 u/L
LIPASE [1]: 8 u/L
PHOSPHORUS [1]: 11.1 mg/dL
POTASSIUM [1]: 5.69 MEQ/L
SODIUM [1]: 145.7 MEQ/L
TOTAL BILIRUBIN [1]: 0.3 mg/dL
TOTAL PROTEIN [1]: 6 G/DL
URIC ACID [1]: 0.73 mg/dL
ABSOLUTE BASOPHIL [2]: 0 CELLS/uL
ABSOLUTE EOSINOPHIL [2]: 64 CELLS/uL
ABSOLUTE LYMPHOCYTE [2]: 9025.33 CELLS/uL
ABSOLUTE MONOCYTE [2]: 0 CELLS/uL
ABSOLUTE SEGMENTED NEUTROPHIL [2]: 844 CELLS/uL
BASOPHIL [2]: 0%
EOSINOPHIL [2]: 0.67%
ERYTHROCYTE COUNT [2]: 5.45 x10E6/uL
HEMATOCRIT [2]: 34.93%
HEMOGLOBIN [2]: 13 G/DL
LEUKOCYTE COUNT [2]: 9.93 x10E3/uL
LYMPHOCYTE [2]: 90.33%
MEAN CORPUSCULAR HEMOGLOBIN [2]: 23.83 pg
MEAN CORPUSCULAR HEMOGLOBIN CONCENTRATION [2]: 37.2 G/DL
MONOCYTE [2]: 0%
NEUTROPHIL [2]: 9%
NUCLEATED RED BLOOD CELLS [2]: 0 /100WBC
PLATELET COUNT [2]: 1243.33 x10E3/uL
ALANINE AMINOTRANSFERASE [2]: 86 u/L
ALBUMIN [2]: 4.3 G/DL
ALKALINE PHOSPHATASE [2]: 449.67 u/L
BLOOD UREA NITROGEN [2]: 14.67 mg/dL
CARBON DIOXIDE [2]: 26.33 mmol/L
CHLORIDE [2]: 105.33 MEQ/L
CHOLESTEROL [2]: 61.33 mg/dL
CREATINE PHOSPHOKINASE [2]: 205.67 u/L
CREATININE [2]: 0.17 mg/dL
GLUCOSE [2]: 154 mg/dL
LACTATE DEHYDROGENASE [2]: 135.33 u/L
LIPASE [2]: 9 u/L
PHOSPHORUS [2]: 11 mg/dL
POTASSIUM [2]: 5.83 MEQ/L
SODIUM [2]: 145.03 MEQ/L
TOTAL BILIRUBIN [2]: 0.23 mg/dL
TOTAL PROTEIN [2]: 5.97 G/DL
URIC ACID [2]: 1.3 mg/dL
ABSOLUTE BASOPHIL [3]: 0 CELLS/uL
ABSOLUTE EOSINOPHIL [3]: 37 CELLS/uL
ABSOLUTE LYMPHOCYTE [3]: 11284 CELLS/uL
ABSOLUTE MONOCYTE [3]: 0 CELLS/uL
ABSOLUTE SEGMENTED NEUTROPHIL [3]: 1012.33 CELLS/uL
BASOPHIL [3]: 0%
EOSINOPHIL [3]: 0.33%
ERYTHROCYTE COUNT [3]: 5.01 x10E6/uL
HEMATOCRIT [3]: 32.5%
HEMOGLOBIN [3]: 12.27 G/DL
LEUKOCYTE COUNT [3]: 12.33 x10E3/uL
LYMPHOCYTE [3]: 91.33%
MEAN CORPUSCULAR HEMOGLOBIN [3]: 24.53 pg
MEAN CORPUSCULAR HEMOGLOBIN CONCENTRATION [3]: 37.73 G/DL
MONOCYTE [3]: 0%
NEUTROPHIL [3]: 8.33%
NUCLEATED RED BLOOD CELLS [3]: 0 /100WBC
PLATELET COUNT [3]: 1206.67 x10E3/uL
ALANINE AMINOTRANSFERASE [3]: 77.33 u/L
ALBUMIN [3]: 4.37 G/DL
ALKALINE PHOSPHATASE [3]: 359.33 u/L
BLOOD UREA NITROGEN [3]: 17.33 mg/dL
CARBON DIOXIDE [3]: 27.33 mmol/L
CHLORIDE [3]: 100 MEQ/L
CHOLESTEROL [3]: 49.67 mg/dL
CREATINE PHOSPHOKINASE [3]: 251 u/L
CREATININE [3]: 0.21 mg/dL
GLUCOSE [3]: 162 mg/dL
LACTATE DEHYDROGENASE [3]: 163.67 u/L
LIPASE [3]: 9 u/L
PHOSPHORUS [3]: 10.77 mg/dL
POTASSIUM [3]: 5.96 MEQ/L
SODIUM [3]: 141.83 MEQ/L
TOTAL BILIRUBIN [3]: 0.2 mg/dL
TOTAL PROTEIN [3]: 5.9 G/DL
URIC ACID [3]: 1.47 mg/dL
